Assay results published in patent publication US11793782B2, “Therapeutic agents for neurodegenerative diseases” (priority 2017, dated 2023).
Where “and” joins values, the source holds several entries; their conditions need not be identical. Equal values may be shown once.

Columns and labels:
[1] = test system: progressive supranuclear palsy patients; test: Case studies, progressive supranuclear palsy patients; format: in vivo, human; settings: for Clinical observation: 5 g per day; for Symptoms after stopping medication: about two months later
Protocol: After 27 days of acetyl-leucine treatment, medication was stopped and the patient was re-examined 60 days later. […] Gait analysis was performed before treatment commenced. […] Gait analysis was performed before treatment commenced. After 17 days of treatment, medication was stopped and the patient was re-examined 4 days later. […] Gait analysis was performed before treatment commenced. After three weeks of treatment, medication was stopped and the patient was re-examined.

NPC patients = test: Clinical severity score (CSS) and annual severity increment score (ASIS) in NPC patients; format: in vivo, human; set-up: key to CSS overall / CSS eye movement / CSS ambulation / CSS speech / CSS swallow / CSS fine motor skills / CSS cognition / CSS memory / CSS seizures: NPC clinical severity score; higher score = greater severity; settings: for CSS overall / CSS ambulation / CSS cognition / CSS eye movement / CSS fine motor skills / CSS memory / CSS seizures / CSS speech / CSS swallow / ASIS overall: NPC patients; for ASIS overall: CSS divided by age
Text: Progression of a neurodegenerative disease over time or through treatment can be monitored, for example, using one or more known tests at two or more time points and comparing the results. Disease progression and/or severity can be assessed, for example, using the Scale for the Assessment and Rating of Ataxia (SARA), Spinocerebellar Ataxia Functional Index (SCAFI), the International Cooperative Ataxia Rating Scale (ICARS), the brief ataxia rating scale (BARS), the modified Disability Rating Scale (mDRS), EuroQol 5Q-5D-5L (EQ-5D-5L), the visual analogue scale (VAS), neuropsychological tests, such as Wechsler Adult Intelligence Scale-Revised (WAIS-R), Wechsler Intelligence Scale for Children-IV (WISC-IV), Montreal Cognitive Assessment (MoCA), as well as scales used in movement disorders, such as the Unified Parkinson's Rating Scale (UPRS) or the Unified Multiple System Atrophy Rating Scale (UMSARS), or other suitable tests. For certain LSDs, such as NPC, particular scores have been developed and validated over the last decades, for instance the clinical severity score (CSS) and annual severity increment score (ASIS) (see Yanjanin et al., “Linear Clinical Progression, Independent of Age of Onset, in Niemann-Pick Disease, Type C,” Am J Med Genet Part B 153B:132-140) and the modified 6-Domain NP-C disability Scale (mDRS score). For example, an NPC patient's severity can be quantified by assigning a CSS, which assesses various parameters of the disease (ambulation, seizures, eye movement, etc.) and gives each parameter a score out of 5. A higher score equals a greater severity. The ASIS quantifies the annual rate of change in the CSS, calculated by dividing the CSS by the patient's age. In this regard, certain scores in these tests are characteristic of symptomatic neurodegenerative disease patients and evidence disease progression and/or severity.
An NPC patient's severity may be quantified by assigning a clinical severity score (CSS), which assesses various parameters of the disease and gives each parameter a score out of 5 (higher score=greater severity). See Yanjanin et al., “Linear Clinical Progression, Independent of Age of Onset, in Niemann-Pick Disease, Type C,” Am J Med Genet Part B 153B:132-140. In an untreated patient, one can typically predict how the CSS will change over time in an individual, as disease progression appears to be linear. For example, if Patient A moves from a CSS of 8 to a CSS of 12 between month 0 and month 12, it can be predicted that by month 36, the patient will have a CSS of 20. The annual severity increment score (ASIS) quantities the annual rate of change in the CSS, calculated by dividing the CSS of a patient by the patient's age. […] Each year, the patient would be expected to progress by 4 CSS points, such that at 4 years of age, the patient's CSS would be 16. If therapeutic intervention slowed or arrested disease progression, one would expect the patient to have a smaller ASIS score after such therapy than at baseline.
Ten NPC patients were administered acetyl-leucine at 4.5 g/day over long durations. ACSS was determined at baseline, and at various time points, for eye movement, ambulation, speech, swallow, fine motor skills, cognition, memory, and seizures. An overall CSS was calculated at baseline and at each such time point by adding the individual CSS values for each parameter (eye movement, ambulation, etc.).
The ASIS at baseline and each time point was calculated using each patient's CSS and age at the time of assessment. The overall ASIS for each patient at each time point is shown below in Table 35.

[2] = test system: Niemann-Pick A (NPA) patient fibroblasts; test: Lysosomal volume via LysoTracker, NPA fibroblasts; format: cell-based, human; settings: 1 mM, 6 days
[3] = one line per Patient, 4.5 g/day, Time Point 2, listed as acetyl-leucine
[4] = one line per Patient, 4.5 g/day, Time Point 3, listed as acetyl-leucine
[5] = one line per Patient, 4.5 g/day, Time Point 4, listed as acetyl-leucine

Structure (SMILES): CC(=O)NC(CC(C)C)C(=O)O (racemic) [acetyl-DL-leucine]
- Symptoms after suspension of treatment ([1]; PSP Patient 1): symptoms worsened
- Clinical observation ([1]; PSP Patient 1, 27 days of treatment): significant reduction of dizziness and slight improvement of gait
- PSPRS Score ([1]; PSP Patient 1, re-examined about two months later): remained stable
- Clinical observation ([1]; PSP Patient 2, 17 days of treatment, re-examined 4 days after stopping): no significant improvement of gait or hypokinetic rigid syndrome
- Symptoms after stopping medication ([1]; PSP Patient 2): no deterioration of symptoms
- Coefficient of variation (temporal) ([1]; PSP Patient 2, after 17 days of treatment, before 8.5): 6.6
- Track width ([1]; PSP Patient 2, after 17 days of treatment, before 10.3): 9.3 cm
- Functional Gait Assessment ([1]; PSP Patient 2, after 17 days of treatment, before 15/30): 15/30
- Double stance ([1]; PSP Patient 2, after 17 days of treatment, before 34.5): 28.6%
- speed ([1]; PSP Patient 2, after 17 days of treatment, before 51): 68 cm/s
- Step cycle length ([1]; PSP Patient 2, after 17 days of treatment, before 66): 82 cm
- cadence ([1]; PSP Patient 2, after 17 days of treatment, before 93): 99 steps/minute
- Max. speed ([1]; PSP Patient 2, after 17 days of treatment, before 123): 98 cm/s
- Clinical observation ([1]; PSP Patient 3, 17 days of treatment, re-examined 4 days after stopping): no significant improvement of gait or hypokinetic rigid syndrome
- Symptoms after stopping medication ([1]; PSP Patient 3): no deterioration of symptoms
- Coefficient of variation (temporal) ([1]; PSP Patient 3, after 17 days of treatment, before 3.6): 3.1
- Track width ([1]; PSP Patient 3, after 17 days of treatment, before 15.5): 15.1 cm
- Double stance ([1]; PSP Patient 3, after 17 days of treatment, before 25.8): 24.3%
- Functional Gait Assessment ([1]; PSP Patient 3, after 17 days of treatment, before 28/30): 27/30
- speed ([1]; PSP Patient 3, after 17 days of treatment, before 103): 120 cm/s
- cadence ([1]; PSP Patient 3, after 17 days of treatment, before 106): 112 steps/minute
- Step cycle length ([1]; PSP Patient 3, after 17 days of treatment, before 118): 129 cm
- Max. speed ([1]; PSP Patient 3, after 17 days of treatment, before 163): 194 cm/s
- Clinical observation ([1]; PSP Patient 4, after three weeks of treatment): gait with increased subjective security and with reduced frequency of falls
- Functional Gait Assessment ([1]; PSP Patient 4, after 3 weeks of treatment): 14/30
- Coefficient of variation (temporal) ([1]; PSP Patient 4, after 3 weeks of treatment, before 8.2): 6.8
- Track width ([1]; PSP Patient 4, after 3 weeks of treatment, before 15.4): 13.6 cm
- speed ([1]; PSP Patient 4, after 3 weeks of treatment, before 39): 65 cm/s
- Step cycle length ([1]; PSP Patient 4, after 3 weeks of treatment, before 43): 63 cm
- Double stance ([1]; PSP Patient 4, after 3 weeks of treatment, before 45.4): 36%
- Max. speed ([1]; PSP Patient 4, after 3 weeks of treatment, before 70): 93 cm/s
- cadence ([1]; PSP Patient 4, after 3 weeks of treatment, before 109): 125 steps/minute
- Symptoms without medication ([1]; PSP Patient 4, after three months without medication): progression of hypokinetic-rigid syndrome
- CSS overall (NPC patients; one line per Patient I.D 1-10, 4.5 g/day, Time Point 2 (78-400 days, Table 25), listed as acetyl-leucine): 13 and 12 (3×) and 23 and 19 and 22 and 11 (2×) and 33
- CSS ambulation (NPC patients; [3]): 2 (5×) and 1 (3×) and 4 and 5
- CSS cognition (NPC patients; [3]): 3 (5×) and 4 (3×) and 2 and 5
- CSS eye movement (NPC patients; [3]): 2 and 3 (9×)
- CSS fine motor skills (NPC patients; [3]): 1 (6×) and 4 (2×) and 2 and 5
- CSS memory (NPC patients; [3]): 1 (5×) and 3 and 4 (3×) and 0
- CSS seizures (NPC patients; [3]): 0 (9×) and 5
- CSS speech (NPC patients; [3]): 2 (4×) and 1 (6×)
- CSS swallow (NPC patients; [3]): 2 (5×) and 3 (3×) and 0 and 4
- CSS overall (NPC patients; one line per Patient, 4.5 g/day, Time Point 3 (165-644 days), listed as acetyl-leucine): 10 (2×) and 12 and 21 (2×) and 19 and 11 (2×) and 33
- CSS ambulation (NPC patients; [4]): 1 (5×) and 2 (3×) and 5
- CSS cognition (NPC patients; [4]): 3 (5×) and 4 (3×) and 5
- CSS eye movement (NPC patients; [4]): 2 (2×) and 3 (7×)
- CSS fine motor skills (NPC patients; [4]): 1 (5×) and 4 (2×) and 2 and 5
- CSS memory (NPC patients; [4]): 0 (2×) and 1 (3×) and 3 (2×) and 4 (2×)
- CSS seizures (NPC patients; [4]): 0 (8×) and 5
- CSS speech (NPC patients; [4]): 1 (6×) and 2 (3×)
- CSS swallow (NPC patients; [4]): 2 (4×) and 3 (3×) and 0 and 4
- CSS eye movement (NPC patients; one line per Patient, 4.5 g/day, Time Point 4): 3
- CSS overall (NPC patients; one line per Patient, 4.5 g/day, Time Point 4 (297-414 days), listed as acetyl-leucine): 12 and 21 and 33
- CSS ambulation (NPC patients; [5]): 1 and 2 and 5
- CSS cognition (NPC patients; [5]): 3 and 4 and 5
- CSS fine motor skills (NPC patients; [5]): 1 and 4 and 5
- CSS memory (NPC patients; [5]): 1 and 3 and 4
- CSS seizures (NPC patients; [5]): 0 (2×) and 5
- CSS speech (NPC patients; [5]): 1 and 2 (2×)
- CSS swallow (NPC patients; [5]): 2 and 3 and 4
- ASIS overall (NPC patients; one line per patient (order of Table 26), Time Point 2, listed as acetyl-leucine): 0.4767 and 0.4299 and 0.6073 and 0.5333 and 0.4452 and 0.7124 and 0.406 and 0.3769 and 1.905 and 0.5926
- ASIS overall (NPC patients; one line per patient, Time Point 3, listed as acetyl-leucine): 0.3635 and 0.4232 and 0.5523 and 0.5299 and 0.4029 and 0.6656 and 0.3393 and 1.881 and 0.5325
- ASIS overall (NPC patients; one line per patient, Time Point 4, listed as acetyl-leucine): 0.4162 and 0.5454 and 1.853
- ASIS during treatment relative to ASIS at baseline (NPC patients; ten NPC patients, 4.5 g/day): all ten patients showed a reduction in ASIS
- Overall change in CSS over the course of the experiment (NPC patients; ten NPC patients, 4.5 g/day): none of the ten patients showed an overall increase in CSS
- LysoTracker fluorescence relative to untreated disease fibroblasts [2]: statistically significant reduction in LysoTracker fluorescence
